Reference: patent US20060045953A1 (priority 2004, published 2006)

Test system: not given
Test: not given
Details: not given

| melting point [°C] | Compound |
| --- | --- |
| 107 to 108 | CCCC(CCC)NC(=O)c1ccc2oc(CC)nc2c1 [Example 41, 2-Ethyl-benzooxazole-5-carboxylic acid (1-propyl-butyl)-amide] |
| 137 to 138 | CCCC(CCC)NC(=O)c1ccc2oc(OC)nc2c1 [Example 42, 2-Methoxy-benzooxazole-5-carboxylic acid (1-propyl-butyl)-amide] |
| 128 to 129 | CCCC(CCC)NC(=O)c1ccc2oc(OCC)nc2c1 [Example 43, 2-Ethoxy-benzooxazole-5-carboxylic acid (1-propyl-butyl)-amide] |

Target: T1, hT1R2/hT1R3 sweet receptor (Homo sapiens, UniProt Q7RTX0+Q8TE23)
T1 construct: expressed in transfected cells; host or cells: HEK293 derivative stably expressing Gα15, clone S-9
T1 sequence (Q8TE23 20-839): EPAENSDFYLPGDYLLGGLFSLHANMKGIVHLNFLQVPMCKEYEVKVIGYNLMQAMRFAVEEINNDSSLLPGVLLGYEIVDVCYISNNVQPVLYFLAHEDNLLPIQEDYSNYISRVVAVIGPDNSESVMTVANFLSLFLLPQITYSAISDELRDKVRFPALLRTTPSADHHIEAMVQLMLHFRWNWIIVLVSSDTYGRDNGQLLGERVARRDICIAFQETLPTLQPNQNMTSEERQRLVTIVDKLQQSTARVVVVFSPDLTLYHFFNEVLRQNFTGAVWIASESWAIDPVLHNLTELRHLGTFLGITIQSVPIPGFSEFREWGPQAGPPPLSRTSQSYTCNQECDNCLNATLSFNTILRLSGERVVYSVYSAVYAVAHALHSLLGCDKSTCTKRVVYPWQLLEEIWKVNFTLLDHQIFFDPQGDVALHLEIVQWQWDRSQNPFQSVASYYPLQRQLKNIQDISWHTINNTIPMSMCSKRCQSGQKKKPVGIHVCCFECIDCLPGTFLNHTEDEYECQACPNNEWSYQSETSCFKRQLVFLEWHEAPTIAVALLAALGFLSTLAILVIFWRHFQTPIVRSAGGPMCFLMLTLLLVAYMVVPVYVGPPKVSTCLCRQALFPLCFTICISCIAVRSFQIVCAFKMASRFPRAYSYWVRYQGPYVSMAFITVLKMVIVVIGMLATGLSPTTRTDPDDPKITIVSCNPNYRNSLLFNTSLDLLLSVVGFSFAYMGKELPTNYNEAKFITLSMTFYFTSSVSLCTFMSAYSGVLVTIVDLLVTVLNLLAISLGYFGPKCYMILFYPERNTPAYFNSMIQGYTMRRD
T1 sequence (Q7RTX0 21-852): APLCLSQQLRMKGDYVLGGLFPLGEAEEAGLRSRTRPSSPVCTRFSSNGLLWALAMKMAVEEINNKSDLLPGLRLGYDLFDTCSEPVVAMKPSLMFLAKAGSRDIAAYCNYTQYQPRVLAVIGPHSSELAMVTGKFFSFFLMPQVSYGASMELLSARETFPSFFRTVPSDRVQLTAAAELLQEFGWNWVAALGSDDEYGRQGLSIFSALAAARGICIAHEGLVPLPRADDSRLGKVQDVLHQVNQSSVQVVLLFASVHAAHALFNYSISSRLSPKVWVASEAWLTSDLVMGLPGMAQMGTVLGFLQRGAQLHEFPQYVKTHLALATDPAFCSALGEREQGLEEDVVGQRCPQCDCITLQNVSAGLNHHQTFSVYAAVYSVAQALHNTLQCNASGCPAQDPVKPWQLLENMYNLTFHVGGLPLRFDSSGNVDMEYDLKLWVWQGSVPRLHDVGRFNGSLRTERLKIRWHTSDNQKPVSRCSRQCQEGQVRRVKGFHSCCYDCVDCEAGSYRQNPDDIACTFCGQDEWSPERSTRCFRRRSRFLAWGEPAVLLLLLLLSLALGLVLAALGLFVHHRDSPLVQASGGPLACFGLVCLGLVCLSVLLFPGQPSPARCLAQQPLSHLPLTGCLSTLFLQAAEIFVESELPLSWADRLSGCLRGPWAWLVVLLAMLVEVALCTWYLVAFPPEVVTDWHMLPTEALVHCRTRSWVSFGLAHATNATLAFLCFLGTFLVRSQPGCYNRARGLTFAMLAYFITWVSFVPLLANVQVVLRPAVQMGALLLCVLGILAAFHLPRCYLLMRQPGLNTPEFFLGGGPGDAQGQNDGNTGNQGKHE
Test: In vitro hT1R2/hT1R3 sweet taste receptor activation assay (FLIPR, dose response)
Format: cell-based
Details: Table E, Sweet Enhancer Amides; read-out: Sweet EC50
In short: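 S-9 cells expressing hT1R2/hT1R3, loaded with 4 µM Fluo-3AM 1 h at room temperature. Calcium response on FLIPR at room temperature in D-PBS, with 10 concentrations from 60 nM to 30 µM in duplicate.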

| EC50 [nM] | Compound |
| --- | --- |
| 3030 | CCCC(CCC)NC(=O)c1cccc(C(F)(F)F)c1 [Example E68, N-(heptan-4-yl)-3-(trifluoromethyl)benzamide] |
| 4240 | CC1CCCCC1NC(=O)c1nsc(Cl)c1Cl (stereo not shown) [Example E78, 4,5-Dichloro-isothiazole-3-carboxylic acid (2-methyl-cyclohexyl)-amide] |
| 2340 | O=C(Nc1ccc(Cl)cc1Cl)N1CCc2ccccc2C1 [Example E109, N-(2,4-dichlorophenyl)-3,4-dihydroisogumoline-2(1H)-carboxamide] |
| 2500 | N#Cc1ccccc1NC(=O)N1CCc2ccccc2C1 [Example E110, N-(2-cyanophenyl)-3,4-dihydroisoquinoline-2(1H)-carboxamide] |
| 4270 | Cc1ccc(NC(=O)N2CCc3ccccc3C2)cc1 [Example E111, N-p-tolyl-3,4-dihydroisoquinoline-2(1H)-carboxamide] |
| 4330 | Cc1c(Cl)cccc1NC(=O)N1CCc2ccccc2C1 [Example E112, N-(3-chloro-2-methylphenyl)-3,4-dihydroisoguinoline-2(1H)-carboxamide] |
| 4440 | COc1ccc(NC(=O)N2CCc3ccccc3C2)c(OC)c1 [Example E113, N-(2,4-dimethoxyphenyl)-3,4-dihydroisoquinoline-2(1H)-carboxamide] |
| 190 | Cc1cc(Cl)ccc1NC(=O)N1Cc2cccc(C)c2C1 [Example E114, N-(4-chloro-2-methylphenyl)-4-methylisoindoline-2-carboxamide] |
| 250 | Cc1ccc(NC(=O)N2Cc3cccc(C)c3C2)c(C)c1 [Example E115, N-(2,4-dimethylphenyl)-4-methylisoindoline-2-carboxamide] |
| 710 | COc1ccc(NC(=O)N2Cc3cccc(C)c3C2)c(C)c1 [Example E116, N-(4-methoxy-2-methylphenyl)-4-methylisomdoline-2-carboxamide] |
| 90 | COc1cc(F)c(NC(=O)N2Cc3cccc(C)c3C2)c(OC)c1 [Example E117, N-(2-fluoro-4,6-dimethoxyphenyl)-4-methylisoindoline-2-carboxamide] |
| 100 | COc1ccc(NC(=O)N2Cc3cccc(C)c3C2)c(F)c1 [Example E118, N-(2-fluoro-4-methoxyphenyl)-4-methylisoindoline-2-carboxamide] |
| 1060 | O=C(Nc1cccc2c1CCCC2)N1CCc2ccccc21 [Example E119, N-(5,6,7,8-tetrahydronaphthalen-1-yl)indoline 1-carboxamide] |
| 2380 | Cc1cccc(NC(=O)N2CCc3ccccc32)c1C [Example E120, N-(2,3-dimethylphenyl)indoline-1-carboxamide] |
| 1610 | COc1cccc(C(=O)NC2CCCc3c(OC)cccc32)c1O (stereo not shown) [Example E121, 2-hydroxy-3-methoxy-N-(5-methoxy-1,2,3,4-tetrahydronaphthalen-1-yl)benzamide] |
| 1950 | COc1cccc2c1CCCC2NC(=O)c1cccc(C)c1O (stereo not shown) [Example E122, 2-hydroxy-N-(5-methoxy-1,2,3,4-tetrahydronaphthalen-1-yl)-3-methylbenzamide] |
| 2560 | COc1cccc2c1CCCC2NC(=O)c1cccc(-c2ccccc2)c1O (stereo not shown) [Example E123, 2-hydroxy-N-(5-methoxy-1,2,3,4-tetrahydronaphthalen-1-yl)-3-phenylbenzamide] |
| 2640 | COc1cccc2c1CCCC2NC(=O)c1cccc(C(C)C)c1O (stereo not shown) [Example E124] |
| 620 | CCCc1nocc1C(=O)N[C@@H]1CCCc2c(C)cc(C)cc21 [Example E125, (R)-N-(5,7-dimethyl-1,2,3,4-tetrahydronaphthalen-1-yl)-3-propylisoxazole-4-carboxamide] |
| 890 | Cc1cccc2c1CCC[C@H]2NC(=O)c1cccc(Cl)c1O [Example E126, (R)-3-chloro-2-hydroxy-N-(5-methyl-1,2,3,4-tetrahydronaphthalen-1-yl)benzamide] |
| 1240 | CCc1nocc1C(=O)N[C@@H]1CCCc2c(C)cc(C)cc21 [Example E128, (R)-N-(5,7-dimethyl-1,2,3,4-tetrahydronaphthalen-1-yl)-3-ethylisoxazole-4-carboxamide] |
| 410 | C/C=C/c1c(F)c(F)c(C(=O)N[C@@H](C)C(C)C)c(F)c1F [Example E129, (S,E)-2,3,5,6-tetrafluoro-N-(3-methylbutan-2-yl)-4-(prop-1-enyl)benzamide] |
| 430 | C=CCc1c(F)c(F)c(C(=O)N[C@@H](C)C(C)(C)C)c(F)c1F [Example E130, (S)-4-allyl-N-(3,3-dimethylbutan-2-yl)-2,3,5,6-tetrafluorobenzamide] |
| 440 | CC(C)[C@H](C)NC(=O)c1c(F)c(F)c(-c2ccccc2)c(F)c1F [Example E131, (S)-2,3,5,6-tetrafluoro-N-(3-methylbutan-2-yl)-4-phenyl benzamide] |
| 550 | C=CCc1c(F)c(F)c(C(=O)NC2CCCCC2)c(F)c1F [Example E132, 4-allyl-N-cyclohexyl-2,3,5,6-tetrafluorobenzamide] |
| 600 | CCOc1c(F)c(F)c(C(=O)N[C@@H](C)C(C)C)c(F)c1F [Example E133, (S)-4-ethoxy-2,3,5,6-tetrafluoro-N-(3-methylbutan-2-yl)benzamide] |

Target: T2, hT1R1/hT1R3 umami receptor (Homo sapiens, UniProt Q7RTX0+Q7RTX1)
T2 construct: expressed in transfected cells; host or cells: HEK293 derivative stably expressing Gα15, clone I-17, expression induced with mifepristone
T2 sequence (Q7RTX1 21-841): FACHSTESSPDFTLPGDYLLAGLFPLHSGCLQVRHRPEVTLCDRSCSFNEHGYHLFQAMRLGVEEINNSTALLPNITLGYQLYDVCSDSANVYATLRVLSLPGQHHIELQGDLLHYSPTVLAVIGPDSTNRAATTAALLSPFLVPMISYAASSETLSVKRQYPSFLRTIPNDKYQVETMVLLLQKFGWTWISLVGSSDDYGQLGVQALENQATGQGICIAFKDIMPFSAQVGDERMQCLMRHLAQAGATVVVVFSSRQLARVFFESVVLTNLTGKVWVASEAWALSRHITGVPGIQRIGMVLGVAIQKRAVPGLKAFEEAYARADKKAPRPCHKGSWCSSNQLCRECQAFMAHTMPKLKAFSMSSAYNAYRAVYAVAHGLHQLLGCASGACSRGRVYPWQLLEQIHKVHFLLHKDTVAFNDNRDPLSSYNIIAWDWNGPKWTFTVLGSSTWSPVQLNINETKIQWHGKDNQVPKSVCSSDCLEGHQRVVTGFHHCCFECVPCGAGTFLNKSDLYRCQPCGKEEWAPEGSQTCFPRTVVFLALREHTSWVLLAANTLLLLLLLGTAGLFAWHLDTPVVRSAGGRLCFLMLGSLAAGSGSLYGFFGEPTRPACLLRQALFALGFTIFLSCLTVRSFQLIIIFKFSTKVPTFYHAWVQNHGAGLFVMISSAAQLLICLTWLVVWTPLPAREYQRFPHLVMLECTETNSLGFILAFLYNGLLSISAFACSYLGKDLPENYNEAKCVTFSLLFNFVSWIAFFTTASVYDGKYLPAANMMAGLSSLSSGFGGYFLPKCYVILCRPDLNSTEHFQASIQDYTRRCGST
T2 sequence (Q7RTX0 21-852): T1 sequence (Q7RTX0 21-852)
Test: In vitro hT1R1/hT1R3 umami taste receptor activation assay (FLIPR, dose response)
Format: cell-based
Details: Table E; read-out: Umami EC50

| EC50 [nM] | Compound |
| --- | --- |
| 330 | CCCC(CCC)NC(=O)c1cccc(C(F)(F)F)c1 [Example E68, N-(heptan-4-yl)-3-(trifluoromethyl)benzamide] |
| 8510 | CC1CCCCC1NC(=O)c1nsc(Cl)c1Cl (stereo not shown) [Example E78, 4,5-Dichloro-isothiazole-3-carboxylic acid (2-methyl-cyclohexyl)-amide] |

Same assay, conditions: read-out: EC50 for activation of a hT1R1/hT1R3 umami receptor expressed in an HEK293 cell line

| EC50 [nM] | Compound |
| --- | --- |
| 680 | CCCC(CCC)NC(=O)c1ccc2oc(CC)nc2c1 [Example 41, 2-Ethyl-benzooxazole-5-carboxylic acid (1-propyl-butyl)-amide] |
| 690 | CCCC(CCC)NC(=O)c1ccc2oc(OC)nc2c1 [Example 42, 2-Methoxy-benzooxazole-5-carboxylic acid (1-propyl-butyl)-amide] |
| 5000 | CCCC(CCC)NC(=O)c1ccc2oc(OCC)nc2c1 [Example 43, 2-Ethoxy-benzooxazole-5-carboxylic acid (1-propyl-butyl)-amide] |
